What was measured:
H460 cells [1] = assay: proliferation, viable cell count by trypan blue exclusion; assay type: cell-based, human; details: for proliferation (cell counts relative to DMSO): H460, counts at 72 hours shown
Method: Cells were incubated in 20% trypan blue (Sigma) for 5 minutes. Cells excluding trypan blue were counted using a standard hemocytometer (Hausser Scientific) to determine total numbers of viable cells. Data are expressed as mean±SD of three experiments.
H460 non-small cell lung cancer cells were plated in 24 well plates and exposed to increasing concentrations of the indicated inhibitors of Formula IV (FBR1-02 corresponds to
DMSO was used as vehicle. After 24, 48 and 72 hours of exposure, cells were detached and viable cells were counted by Trypan blue exclusion (representative counts at 48 hours shown).
Method: H460 cells were plated in 24 well plates and exposed to increasing concentrations of FB4-31 to FB4-36 and 5MPN. DMSO was used as a vehicle. After 24, 48 and 72 hours of exposure, cells were detached, and viable cells were counted by Trypan blue exclusion (representative counts at 72 hours shown).

human recombinant PFKFB4 = human recombinant PFKFB4 (Homo sapiens, UniProt Q16877); assay: ADP-Glo kinase assay; assay type: biochemical
Method: The fructose-6-phosphate kinase activity of human recombinant PFKFB4 in the presence of DMSO±indicated 5MPN concentrations was assayed as previously described. The activity of 5MPN against 97 kinases was examined using a commercially available active-site dependent competition binding assay core service (KINOMEscanEDGE) that quantifies the capacity of test agents to compete with an immobilized, active-site directed ligand using a DNA-tagged kinase and immobilized ligand and compound. For example, enzyme inhibition was studied using an ADP-Glo assay. The effect of MPN-2 on the activity of recombinant human PFKFB4 enzyme was examined in an ADP-Glo assay (Promega), which measures ADP formed from a kinase reaction. ADP is converted into ATP, which is converted into light by a luciferase. PFKFB4 protein was exposed to MPN-2 at indicated concentrations in the presence of ATP and fructose-6-phosphate and following manufacturer's instructions, ADP-Glo and kinase detections reagents were added. The data are shown as the decrease in luminescence caused by MPN-2 relative to DMSO.
Method: The efficacy of Formula (VIII) in inhibition of the kinase activity of the PFKFB4 enzyme was examined by exposing recombinant human PFKFB4 protein to Formula (VIII) in the ADP-Glo kinase assay (Promega) which measures ADP formed through a kinase reaction. Briefly, recombinant protein, ATP, substrate and Formula (VIII) were incubated together for the kinase reaction followed by the addition of ADP-Glo reagent, used to terminate the kinase reaction. Lastly, a kinase detection reagent was added to convert the newly formed ADP to ATP which was measured by a luciferase reaction. Data are shown in FIG. 10 as the decrease in luminescence caused by Formula (VIII) relative to DMSO.
Method: The efficacy of FB4-32 and FB4-35 in inhibition of the kinase activity of the PFKFB4 enzyme was examined by exposing recombinant human PFKFB4 protein to FB4-32 and FB4-35 in the ADP-Glo kinase assay (Promega) which measures ADP formed through a kinase reaction. Briefly, recombinant protein, ATP, substrate and FB4-32 or FB4-35 were incubated together for the kinase reaction followed by the addition of ADP-Glo reagent to terminate the kinase reaction. Last, a kinase detection reagent was added to convert the newly formed ADP to ATP which was measured by a luciferase reaction. Data are shown as the decrease in luminescence caused by FB4-32 and FB4-35 relative to DMSO.

H460 cells [2] = assay: F2,6BP measurement in cells (coupled enzyme reaction); assay type: cell-based, human; details: H460, effects at 2.5 μM
Method: Cells or tissues were prepared as previously described and F2,6BP content measured using a coupled enzyme reaction following a modification of the method of Van Schaftingen et al (VAN SCHAFTINGEN E et al. “A kinetic study of pyrophosphate:fructose-6-phosphate phosphotransferase from potato tubers. Application to a microassay of fructose 2,6-bisphosphate” Eur J Biochem (1982) Vol. 129, No. 1, pp. 191-195) and normalized to total cellular protein measured by the bicinchoninic acid assay (BCA, Thermo Scientific). For example, H460 cells were exposed to the indicated concentrations of MPN-2. In order to measure F2,6BP, cells were harvested, washed with PBS, lysed in NaOH/Tris acetate by heating at 80° C. and lysates neutralized to pH 7.2. F2,6BP content was measured using a coupled enzyme reaction following a modified method of Van Schaftingen et al (VAN SCHAFTINGEN E et al. “A kinetic study of pyrophosphate:fructose-6-phosphate phosphotransferase from potato tubers. Application to a microassay of fructose 2,6-bisphosphate” Eur J Biochem (1982) Vol. 129, No. 1, pp. 191-195). The F2,6BP concentration was normalized to total cellular protein measured by the bicinchoninic acid assay (BCA, Thermo Scientific). All data are expressed as the mean±SD of three experiments. Statistical significance was assessed by the two-sample t test (independent variable).
Method: In order to measure F26BP, H460 cells were exposed to increasing concentrations of the agents and were harvested, washed with PBS, lysed in NaOH/Tris acetate by heating at 80° C. and lysates neutralized to pH 7.2. F26BP content was measured using a coupled enzyme reaction following a modified method of Van Schaftingen et al. (Eur J Biochem. 1982; 129(1):191-195). The F26BP concentration was normalized to total cellular protein measured by the bicinchoninic acid assay (BCA, Thermo Scientific).

H460 cells [3] = assay: glycolysis assay (3H2O from 5-[3H]glucose); assay type: cell-based, human; details: H460
Method: H460 cells were exposed to the indicated concentrations of MPN-2 and glycolysis production was examined. Cells growing in 6-well plates were incubated in 500 μl of complete medium containing 1 μCi of 5-[^3H]glucose per well for 60 min in 5% CO2 at 37° C. Media was collected, ^3H2O formed via glycolysis from the 5-[^3H]glucose measured and counts normalized as previously described. For example, the medium was then collected and centrifuged to pellet any suspended cells. To separate the ^3H2O formed via glycolysis from the 5-[^3H]glucose added to the medium, an evaporation technique in a sealed system was utilized. Briefly, 150 μl aliquots of medium were added to open tubes that were placed upright inside scintillation vials containing 1 ml of H2O. The scintillation vials were sealed, and the ^3H2O produced by glycolysis through enolase and released to the medium was allowed to equilibrate with the H2O in the outer vial for 48 h at 37° C. The amounts of ^3H2O that had diffused into the surrounding H2O was measured on a Tri-Carb 2910 liquid scintillation analyzer (Perkin Elmer) and compared with ^3H2O and 5-[^3H]glucose standards. Protein concentration was determined using the BCA assay and counts were normalized to protein concentration. All data are expressed as the mean±SD of three experiments. Statistical significance was assessed by the two-sample t test (independent variable).
Method: To examine glycolysis, H460 cells growing in 6-well plates were incubated in 500 μl of complete medium containing 1 μCi of 5-[^3H] glucose per well for 60 min in 5% CO2 at 37° C. The medium was then collected and centrifuged to pellet any suspended cells. To separate the ^3H2O formed via glycolysis from the 5-[^3H]glucose added to the medium, an evaporation technique in a sealed system was utilized. Briefly, 150 μl aliquots of medium were added to open tubes that were placed upright inside scintillation vials containing 1 ml of H2O. The scintillation vials were sealed, and the ^3H2O produced by glycolysis through enolase and released to the medium was allowed to equilibrate with the H2O in the outer vial for 48 h at 37° C. The amounts of ^3H2O that had diffused into the surrounding H2O was measured on a Tri-Carb 2910 liquid scintillation analyzer (Perkin Elmer) and compared with ^3H2O and 5-[^3H]glucose standards. Protein concentration was determined using the BCA assay and counts were normalized to protein concentration (previously described in CHESNEY et al. Oncotarget. 2014; 5(16):6670-6686.)

[4] = pharmacokinetic profile after IV and oral administration; assay type: in vivo; details: mice
Method: Method: The pharmacokinetic profile of FB4-32 was determined in mice dosed orally and IV with FB4-32. Nine time points (n=3 per time point) were used to determine indicated PK parameters calculated using WinNonLin v5.0. Plasma samples were extracted using acetonitrile and analyzed by LC/MS-MS using a PhenomexSynergi Polar-RP 4 micron 50×2.0 mm column eluted with a biphasic mobile phase (0.5% formic acid in acetonitrile and water).

Sequence of human recombinant PFKFB4 (Q16877 whole entry): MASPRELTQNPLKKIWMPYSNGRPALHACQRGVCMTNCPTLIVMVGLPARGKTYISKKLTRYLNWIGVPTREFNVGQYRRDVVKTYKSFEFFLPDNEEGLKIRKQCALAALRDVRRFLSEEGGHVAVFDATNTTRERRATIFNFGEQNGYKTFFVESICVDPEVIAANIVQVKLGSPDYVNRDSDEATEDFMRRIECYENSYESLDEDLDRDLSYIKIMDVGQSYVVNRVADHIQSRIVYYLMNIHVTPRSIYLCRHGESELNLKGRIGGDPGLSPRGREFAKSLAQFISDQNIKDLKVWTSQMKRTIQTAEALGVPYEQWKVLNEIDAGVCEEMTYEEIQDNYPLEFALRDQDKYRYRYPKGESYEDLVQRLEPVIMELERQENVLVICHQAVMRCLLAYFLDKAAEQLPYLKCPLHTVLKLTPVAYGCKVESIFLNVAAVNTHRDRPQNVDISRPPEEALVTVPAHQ

| SMILES | proliferation (H460 cells [1]; H460, Formula IV compounds, counts at 48 hours shown) | kinase activity of the PFKFB4 enzyme (luminescence relative to DMSO) (human recombinant PFKFB4) | F26BP (normalized to cellular protein) (H460 cells [2]) | glycolysis (production of 3H2O relative to DMSO) (H460 cells [3]) | proliferation (cell counts relative to DMSO) (H460 cells [1]) | oral bioavailability [4] |
| --- | --- | --- | --- | --- | --- | --- |
| O=[N+]([O-])OCCCCCNc1ccnc2ccccc12 [FBR1-02] | decreased proliferation | – | – | – | – | – |
| COc1cccc2c(NCCCCCCNC(=O)C(F)(F)F)ccnc12 [FB4-32, 2,2,2-Trifluoro-N-(6-((8-methoxyquinolin-4-yl)amino)hexyl)acetamide] | – | inhibited | decrease | dose-dependent decrease | decreased the proliferation of H460 cells in vitro with higher potency than 5MPN | found to have oral bioavailability |
| COc1cccc2c(NCCCCCNC(=O)CBr)ccnc12 [FB4-35, 2-Bromo-N-(5-((8-methoxyquinolin-4-yl)amino)pentyl)acetamide] | – | inhibited | decrease | dose-dependent decrease | decreased the proliferation of H460 cells in vitro with higher potency than 5MPN | – |

From US10774046B2, “Inhibitors for the treatment of cancer and related methods” (UNIVERSITY OF LOUISVILLE RESEARCH FOUNDATION, INC., priority 2017, dated 2020)
